“Also recorded” adds a separate entry of the source.
Assays:
[1] = tested on: Pex7 null animals; conditions: very high doses (over 3000 mg/kg); cited from earlier work
[2] = tested on: Pex7 hypomorphic animals; conditions: 50 mg/kg/day for 2 months; cited from earlier work
[3] = tested on: Pex7 homozygous hypomorphic animals (Pex7^neo/neo); test: 2 week comparison of plasmalogen precursors: plasmalogen levels in plasma and liver (LC-MS); type: in vivo, mouse
Procedure: Pex7 homozygous hypomorphic animals (Pex7^neo/neo) were used as a model of rhizomelic chondrodysplasia punctata (RCDP). Mice were dosed with either PPI-1011 or PPI-1040 at equimolar concentrations of 100 mg/Kg and 89.7 mg/Kg respectively. PPI-1011 was formulated in Neobee M-5, at a concentration of 12.5 mg/mL and stored at −20° C. until the first treatment day after which point the remaining formulation was stored at 4° C. Oral gavage volumes were adjusted by mouse weight to ensure a 100 mg/kg dose. PPI-1040 was stored in a sealed ampoule in solution with dichloromethane under argon gas until immediately before use. At time of treatment the ampoule was opened and dichloromethane was evaporated off under nitrogen gas for 10 minutes. Neobee M-5 was then added and the solution and vortexed to generate a 22.4 mg/mL formulation. Animals were dosed via intraperitoneal injections with doses adjusted by weight to ensure an 89.7 mg/Kg dose to each animal. Animals were sacrificed 24 hours after the ninth treatment (week 1-Monday to Friday and week 2-Monday to Thursday). Blood samples were collected in EDTA tubes and then spun down in a clinical centrifuge. Plasma samples were stored at −80° C. until thawed for analysis. Tissue samples were harvested and flash frozen in liquid nitrogen and then stored at −80° C. All tissue samples were homogenized using liquid nitrogen, generating a fine powder.
Plasma aliquots of 20 μL were analyzed, while tissues were aliquoted with anti-static polypropylene disposable milligram scoops prior to analysis. Water (200 μL) was added and samples were ice bath sonicated for 30 mins prior to the addition of 600 μL of ethyl acetate. Samples were mixed at 2000 rpm for 15 mins followed by a 10 min centrifugation at 3500 rpm. Tissue samples were diluted into an ethyl acetate (1:4) containing labeled internal standards [^13C-PlsEtn (C37^13C6H74NO7P) and ^13C-PtdEtn (C24^13C19H74NO8P)]. Water (80 μL) was added and samples were again stirred at 2000 rpm for 15 mins followed by a 2 min centrifugation at 3500 rpm. High-throughput analysis method was based on multiple reaction monitoring of one parent/fragment transition for the ion pairs, performed using liquid chromatography-mass spectrometry.

[4] = tested on: Pex7 hypomorph/null mice; test: 4 weeks oral treatment of Pex7 hypomorph/null animals: plasmalogen levels in plasma and tissues; type: in vivo, mouse; conditions: 50 mg/kg oral gavage, 5 days per week
From the text: (§1) The Pex7 hypomorph/null model is a hypomorphic (B6;129S6-Pex7^tm2.3Brav/s9) mouse model on a mixed background (C57BL/6NCrl and 129S6/SvEvTac). The hypomorphic allele in Pex7 hypomorph/null was generated by inserting an inverse neo cassette into intron 2 and lox P sites surrounding exon 3. The Pex7 null allele was generated using (B6.C-Tg(cmv-cre)1Cgn/J) mouse. The Pex7 hypomorph/null mouse model has 90% survival, 0.016-0.257% of wild type Pex7 mRNA levels and 20-30% plasmalogen levels Pex7 hypomoprh/null mice (3-4 months); and wild-type animals, males and females included in treatments and behavioral tests. Pex7 hypomorph/null mice were randomly assigned, after a baseline open field test, into 3 treatment groups: PPI-1040, PPI-1011, and vehicle controls, n=6 mice per group). PPI-1011 or PPI-1040 at 50 mg/kg was given by oral gavage 5 days per week (Monday-Friday) for 4 weeks. During the treatment period, animals were weighed weekly and observed for signs of distress. The open field test was performed at the end of treatment. To avoid selection bias, data analysis was performed only at the study end. Animals were sacrificed after a 24-hour post the last dose.
Tissue samples frozen by submersion in liquid nitrogen were homogenized using the Covaris Cryoprep resulting in a fine powder. The powder was then aliquoted using anti-static polypropylene disposable milligram scoops (TWD Tradewinds) resulting in 4-6 mg of tissue per 1.4 ml Thermo matrix tubes. Weights were recorded and metabolite levels were normalized per mg of tissue. HPLC grade water (50 μl) was added into each tube and samples were snap frozen in liquid nitrogen and then stored at −80° C. until extraction. On the day of the extraction, tissue samples were thawed to room temperate and sonicated for 15 mins in an ice bath before mixing at 2000 rpm for a 5 minute and then adding 600 μL of ethyl acetate. Lipids were extracted into ethyl acetate by mixing at 1750 rpm for 1 hr followed by a 10 min centrifugation at 3500 rpm to obtain a clear ethyl acetate layer. Tissue lipid extracts were diluted into an ethyl acetate stock (brain regions diluted 1:10, peripheral tissues 1:5) containing labeled internal standard [^13C-PlsEtn (C37^13C6H74NO7P). Water (40 μL) was added to the diluted extracts and samples were stirred at 1500 rpm for 1 hr followed by a 2 min centrifugation at 3500 rpm.
Plasma extraction was performed on 20 μL aliquots in 1.4 ml Thermo matrix tubes. Lipids were extracted by adding HPLC grade water (50 μl) and ethyl acetate containing labeled internal standard [^13C-PlsEtn (C37^13C6H74NO7P) at 0.2 μg/mL (500 μL) to each plasma sample and then mixing at 1750 rpm for 1 hr followed by a 2 min centrifugation at 3500 rpm for phase separation.
A 100 μL aliquot of the ethyl acetate layer was analyzed using FI-MS/MS on a API4000™ mass spectrometer (Applied Biosystems) coupled with Agilent 1100 HPLC pump and auto sampler. Each transition was scanned for 50 ms with a total acquisition time per sample of 2 min. ethyl acetate:methanol:water ratio of 80:15:5 at a flow rate of 600 μL/min was used as the mobile phase. All standards and stable isotopes used were >95% pure and manufactured by Med-Life Discoveries LP. All the solvents used above were HPLC grade. All samples were analyzed in triplicate to control for any variation resulting from instrument variability. Stable isotope ratios for each analyte were calculated for all tissue and plasma samples (Table 2).

[5] = tested on: Pex7 hypomorphic mice; conditions: 13C-labeled version of PPI-1011; cited from earlier work
[6] = tested on: Pex7 hypomorph/null mice; test: Open field test after 4 weeks oral treatment; type: in vivo, mouse; conditions: 50 mg/kg oral gavage, 5 days per week, 5 minutes test
From the text: as §1
The open field test is a behavioral test used to evaluate the general locomotor activity, exploratory and anxiety-like behaviour of mice in response to a novel environment. The animal is placed inside a custom made square, gray acrylic box measuring 40×40×40 cm and allowed to move freely for 5 minutes while being recorded by an overhead camera (camera model). The footage was analyzed by an automated tracking system (Any-maze Video Tracking Software, Stoelting Co, Wood Dale, Ill., USA), for total distance traveled (meters) & activity (mobility in seconds) time. The total distance traveled is the total distance that animal traveled during the test and the activity measures the amount of time the animal was active during the test.

[7] = healthy animals; cited from earlier work
[8] = PPI-1011 100 mg/Kg oral or PPI-1040 89.7 mg/Kg intraperitoneal, 2 weeks

SMILES	plasmalogen levels in brain and nervous system tissues [1]	plasmalogen levels in erythrocytes and peripheral tissues [1]	clinical improvement [2]	plasmalogen content in red blood cells [2]	levels of the target plasmalogen (16:0/22:6) in the plasma ([3]; PPI-1011 100 mg/Kg oral gavage, 2 weeks (9 treatments))	16:0 plasmalogen pool in liver [3, 8]	target plasmalogen (16:0/22:6) levels in liver [3, 8]	liver plasmalogen levels [4]	plasma plasmalogen levels (all species measured) [4]	plasmalogen levels in tissues (peripheral and brain) [4]	incorporation of labeled plasmalogen into nervous system tissue [5]	incorporation of labeled plasmalogen into tissues [5]	open field: time active [6]	open field: total distance traveled [6]	oral bioavailability [7]	plasma and tissue PlsEtn levels [7]
CCCCCCCCCCCCCCCCCCOCC(O)CO (racemic) [Batyl alcohol, 1-O-octadecyl-rac glycerol]	very limited increases	augmentation of plasmalogen levels in erythrocytes and peripheral tissues	not associated with clinical improvement	partial increase	–	–	–	–	–	–	–	–	–	–	–	–
CC/C=C\C/C=C\C/C=C\C/C=C\C/C=C\C/C=C\CCC(=O)OC(COCCCCCCCCCCCCCCCC)COC(=O)CCCC[C@@H]1CCSS1 (stereo partly shown) [PPI-1011, reference compound]	–	–	–	–	increase observed	no increase in this pool was observed	unable to augment levels to control levels	did not increase the levels of any plasmalogen species in the liver	did not result in significant augmentation of any plasmalogen species measured; also recorded: ineffective at augmenting plasmalogen levels; also recorded: significantly below baseline	did not increase the levels of any plasmalogen species in any of the tissues tested	low	incorporated into peripheral tissues, as well as the neocortex and eye	did not result in a decrease in activity levels	did not result in a decrease in activity levels	orally bioavailable	capable of augmenting plasma and tissue PlsEtn levels

Reference: patent US11311560B2, “Cyclic plasmenylethanolamines” (MED-LIFE DISCOVERIES LP, priority 2017, dated 2022)
